Results from patent US8153818B2, “Triazolyl phenyl benzenesulfonamides” (ChemoCentryx, Inc., priority 2006, dated 2012).

Molecular target: T1, CCR9 (Homo sapiens, UniProt P51686)
T1 construct: chemokine expressing cells (such as THP-1 cells for CCR2 assay or MOLT-4 cells for CCR9 assay); host or cells: MOLT-4
T1 sequence (P51686 1-369): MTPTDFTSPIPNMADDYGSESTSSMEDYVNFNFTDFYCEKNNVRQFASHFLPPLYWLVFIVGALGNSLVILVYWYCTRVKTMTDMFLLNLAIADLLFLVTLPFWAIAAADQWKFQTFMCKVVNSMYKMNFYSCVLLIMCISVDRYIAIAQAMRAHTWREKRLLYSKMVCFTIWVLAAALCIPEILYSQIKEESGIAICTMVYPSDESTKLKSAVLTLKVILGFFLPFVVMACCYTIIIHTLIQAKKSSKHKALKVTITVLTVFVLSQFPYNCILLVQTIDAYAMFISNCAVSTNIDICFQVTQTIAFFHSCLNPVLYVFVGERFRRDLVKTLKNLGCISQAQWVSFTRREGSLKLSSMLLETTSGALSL
Test: CCR9 activity in one of the chemotaxis, binding or calcium mobilization assays
Assay type: cell-based
Conditions: assay not specified per compound
Method: Conventional migration assay was used to determine the efficacy of potential receptor antagonists in blocking migration mediated through chemokines (such as CCR2 or CCR9). This assay was routinely performed using the ChemoTX® microchamber system with a 5-μm pore-sized polycarbonate membrane. To begin such an assay, chemokine expressing cells (such as THP-1 cells for CCR2 assay or MOLT-4 cells for CCR9 assay) were harvested by centrifugation of cell suspension at 1000 RPM on a GS-6R Beckman centrifuge. The cell pellet was resuspended in chemotaxis buffer (HBSS with 0.1% BSA) at 10×10^6 cells/mL for CCR2 assay (5×10^6 cells/mL for CCR9 assay). Test compounds at desired concentrations were prepared from 10 mM stock solutions by serial dilutions in chemotaxis buffer. An equal volume of cells and compounds were mixed and incubated at room temperature for 15 minutes. Afterwards, 20 μL of the mixture was transferred onto the porous membrane of a migration microchamber, with 29 μL of chemokine ligand (0.1 nM chemokine MCP-1 protein for CCR2 assay or […] chemokine TECK protein for CCR9 assay) placed at the lower chamber. Following an incubation at 37° C. (90-minute for CCR2; 150-minute for CCR9), during which cells migrated against the chemokine gradient, the assay was terminated by removing the cell drops from atop the filter. To quantify cells migrated across the membrane, 5 μL of 7×CyQUANT® solution was added to each well in the lower chamber, and the fluorescence signal measured on a Spectrafluor Plus fluorescence plate reader (TECAN, Durham, N.C.). The degree of inhibition was determined by comparing migration signals between compound-treated and untreated cells. IC50 calculation was further performed by non-linear squares regression analysis using Graphpad Prism (Graphpad Software, San Diego, Calif.).
Calcium flux assay measures an increase in intracellular calcium following ligand-induced receptor activation. In the screen of chemokine antagonists, it was used as a secondary assay carried out on a FLIPR® machine (Molecular Devices, Mountain View, Calif.). To begin an assay, chemokine expressing cells (such as THP-1 cells for CCR2 assay or MOLT-4 cells for CCR9 assay) were harvested by centrifugation of cell suspension, and resuspended to 1.5×10^6 cells/mL in HBSS (with 1% fetal calf serum). Cells were then labeled with a calcium indicator dye Fluo-4 AM for 45 minutes at 37° C. with gentle shaking. Following incubation, cells were pelletted, washed once with HBSS and resuspended in the same buffer at a density of 1.6×10^6 cells/mL. One hundred microliters of labeled cells were mixed with 10 μL of test compound at the appropriate concentrations on an assay plate. Chemokine protein (MCP-1 at a final concentration of 0.1 nM for CCR2 assay or TECK at a final concentration of 25 nM for CCR9 assay) to activate the receptor. The degree of inhibition was determined by comparing calcium signals between compound-treated and untreated cells. IC50 calculations were further performed by non-linear squares regression analysis using Graphpad Prism (Graphpad Software, San Diego, Calif.). […]
In the tables below, structures and activity are provided for representative compounds described herein. Activity is provided as follows for either or both of the chemotaxis assay and/or calcium mobilization assays, described above.

| Compound | IC50 [nM] |
| --- | --- |
| CCn1cnnc1-c1cc(Cl)ccc1NS(=O)(=O)c1ccc(C(C)(C)C)cc1 [Compound 31, 4-tert-butyl-N-(4-chloro-2-(4-ethyl-4H-1,2,4-triazol-3-yl)phenyl)benzenesulfonamide] | < 1000 |
| CC(C)(C)c1ccc(S(=O)(=O)Nc2ccc(Cl)cc2-c2nncn2[C@H]2CCNC2)cc1 [Compound 32] | < 1000 |
| Cn1c(-c2cc(Cl)ccc2NS(=O)(=O)c2ccc(C(C)(C)C)cc2)nnc1[C@H]1CCCO1 [Compound 34] | < 1000 |
| CC(C)(C)c1ccc(S(=O)(=O)Nc2ccc(Cl)cc2-c2nncn2C2CCOC2)cc1 (centres unmarked) [Compound 35] | < 1000 |
| Cc1nnc(-c2cc(Cl)c(F)cc2NS(=O)(=O)c2ccc(C(C)(C)C)cc2)n1C [Compound 36, 4-tert-butyl-N-(4-chloro-2-(4,5-dimethyl-4H-1,2,4-triazol-3-yl)-5-fluorophenyl)benzenesulfonamide] | < 1000 |
| CC(C)(C)c1ccc(S(=O)(=O)Nc2cc(F)c(F)cc2-c2nncn2[C@H]2CCNC2)cc1 [Compound 37] | < 1000 |
| CCc1nnc(-c2cc(Cl)ccc2NS(=O)(=O)c2ccc(C(C)(C)C)cc2)n1CC [Compound 38, 4-tert-butyl-N-(4-chloro-2-(4,5-diethyl-4H-1,2,4-triazol-3-yl)phenyl)benzenesulfonamide] | < 1000 |
| CN(C)Cc1nnc(-c2cc(Cl)c(F)cc2NS(=O)(=O)c2ccc(C(C)(C)C)cc2)n1C [Compound 39, 4-tert-butyl-N-(4-chloro-2-(5-((dimethylamino)methyl)-4-methyl-4H-1,2,4-triazol-3-yl)-5-fluorophenyl)benzenesulfonamide] | < 1000 |
| Cn1c(-c2cocn2)nnc1-c1cc(Cl)ccc1NS(=O)(=O)c1ccc(C(C)(C)C)cc1 [Compound 40] | < 1000 |
| COCCc1nnc(-c2cc(Cl)ccc2NS(=O)(=O)c2ccc(C(C)(C)C)cc2)n1C [Compound 41, 4-tert-butyl-N-(4-chloro-2-(5-(2-methoxyethyl)-4-methyl-4H-1,2,4-triazol-3-yl)phenyl)benzenesulfonamide] | < 1000 |
| CC(C)(C)c1ccc(S(=O)(=O)Nc2cc(F)c(F)cc2-c2nncn2C2CCOC2)cc1 (centres unmarked) [Compound 42] | < 1000 |
| CCn1c(-c2cc(Cl)ccc2NS(=O)(=O)c2ccc(C(C)(C)C)cc2)nnc1C(C)C [Compound 43, 4-tert-butyl-N-(4-chloro-2-(4-ethyl-5-isopropyl-4H-1,2,4-triazol-3-yl)phenyl)benzenesulfonamide] | < 1000 |
| CC(C)(C)c1ccc(S(=O)(=O)Nc2cc(F)c(Cl)cc2-c2nncn2C2CCCNC2)cc1 (centres unmarked) [Compound 44] | < 1000 |
| CNCc1nnc(-c2cc(Cl)c(F)cc2NS(=O)(=O)c2ccc(C(C)(C)C)cc2)n1C [Compound 45, 4-tert-butyl-N-(4-chloro-5-fluoro-2-(4-methyl-5-((methylamino)methyl)-4H-1,2,4-triazol-3-yl)phenyl)benzenesulfonamide] | < 1000 |
| CC(C)n1c(-c2cc(Cl)ccc2NS(=O)(=O)c2ccc(C(C)(C)C)cc2)nnc1C1CCOCC1 [Compound 46] | < 1000 |

The remaining lines, values ahead:

| IC50 [nM] | Compound |
| --- | --- |
| < 1000 | CCc1nnc(-c2cc(Cl)c(F)cc2NS(=O)(=O)c2ccc(C(C)(C)C)cc2)n1C1CCOC1 (centres unmarked) [Compound 47] |
| < 1000 | CCNCc1nnc(-c2cc(Cl)c(F)cc2NS(=O)(=O)c2ccc(C(C)(C)C)cc2)n1C [Compound 48, 4-tert-butyl-N-(4-chloro-2-(5-((ethylamino)methyl)-4-methyl-4H-1,2,4-triazol-3-yl)-5-fluorophenyl)benzenesulfonamide] |
| < 1000 | CC(C)NCc1nnc(-c2cc(Cl)c(F)cc2NS(=O)(=O)c2ccc(C(C)(C)C)cc2)n1C [Compound 49, 4-tert-butyl-N-(4-chloro-5-fluoro-2-(5-((isopropylamino)methyl)-4-methyl-4H-1,2,4-triazol-3-yl)phenyl)benzenesulfonamide] |
| < 1000 | Cn1c(CNC2CC2)nnc1-c1cc(Cl)c(F)cc1NS(=O)(=O)c1ccc(C(C)(C)C)cc1 [Compound 50, 4-tert-butyl-N-(4-chloro-2-(5-((cyclopropylamino)methyl)-4-methyl-4H-1,2,4-triazol-3-yl)-5-fluorophenyl)benzenesulfonamide] |
| < 1000 | COCc1nnc(-c2cc(Cl)c(F)cc2NS(=O)(=O)c2ccc(C(C)(C)C)cc2)n1C(C)C [Compound 51, 4-tert-butyl-N-(4-chloro-5-fluoro-2-(4-isopropyl-5-(methoxymethyl)-4H-1,2,4-triazol-3-yl)phenyl)benzenesulfonamide] |
| < 1000 | COCc1nnc(-c2cc(Cl)c(F)cc2NS(=O)(=O)c2ccc(C(C)(C)C)cc2)n1C1CCOC1 (centres unmarked) [Compound 52, 4-tert-butyl-N-(4-chloro-5-fluoro-2-(5-(methoxymethyl)-4-(tetrahydrofuran-3-yl)-4H-1,2,4-triazol-3-yl)phenyl)benzenesulfonamide] |
| < 1000 | CC(C)(C)c1ccc(S(=O)(=O)Nc2cc(F)c(Cl)cc2-c2nncn2[C@@H]2CCOC2)cc1 [Compound 53] |
| < 1000 | CC(C)(C)c1ccc(S(=O)(=O)Nc2cc(F)c(Cl)cc2-c2nncn2[C@H]2CCOC2)cc1 [Compound 54] |
| < 1000 | Cn1c(C(N)=O)nnc1-c1cc(Cl)c(F)cc1NS(=O)(=O)c1ccc(C(C)(C)C)cc1 [Compound 55, 5-(2-(4-tert-butylphenylsulfonamido)-5-chloro-4-fluorophenyl)-4-methyl-4H-1,2,4-triazole-3-carboxamide] |
| < 1000 | CNC(=O)c1nnc(-c2cc(Cl)c(F)cc2NS(=O)(=O)c2ccc(C(C)(C)C)cc2)n1C [Compound 56, 5-(2-(4-tert-butylphenylsulfonamido)-5-chloro-4-fluorophenyl)-N,4-dimethyl-4H-1,2,4-triazole-3-carboxamide] |
| < 1000 | Cn1c(-c2cc(Cl)c(F)cc2NS(=O)(=O)c2ccc(C(C)(C)C)cc2)nnc1C(C)(C)O [Compound 57, 4-tert-butyl-N-(4-chloro-5-fluoro-2-(5-(2-hydroxypropan-2-yl)-4-methyl-4H-1,2,4-triazol-3-yl)phenyl)benzenesulfonamide] |
| < 1000 | CC(=O)c1nnc(-c2cc(Cl)c(F)cc2NS(=O)(=O)c2ccc(C(C)(C)C)cc2)n1C [Compound 58, N-(2-(5-acetyl-4-methyl-4H-1,2,4-triazol-3-yl)-4-chloro-5-fluorophenyl)-4-tert-butylbenzenesulfonamide] |
| < 1000 | CC(O)c1nnc(-c2cc(Cl)c(F)cc2NS(=O)(=O)c2ccc(C(C)(C)C)cc2)n1C (centres unmarked) [Compound 59, 4-tert-butyl-N-(4-chloro-5-fluoro-2-(5-(1-hydroxyethyl)-4-methyl-4H-1,2,4-triazol-3-yl)phenyl)benzenesulfonamide] |
| < 1000 | C[C@H](O)c1nnc(-c2cc(Cl)c(F)cc2NS(=O)(=O)c2ccc(C(C)(C)C)cc2)n1C [Compound 60] |
| < 1000 | C[C@@H](O)c1nnc(-c2cc(Cl)c(F)cc2NS(=O)(=O)c2ccc(C(C)(C)C)cc2)n1C [Compound 61] |
| < 1000 | COCCc1nnc(-c2cc(Cl)c(F)cc2NS(=O)(=O)c2ccc(C(C)(C)C)cc2)n1C [Compound 62, 4-tert-butyl-N-(4-chloro-5-fluoro-2-(5-(2-methoxyethyl)-4-methyl-4H-1,2,4-triazol-3-yl)phenyl)benzenesulfonamide] |
| < 1000 | Cn1c(-c2cc(Cl)c(F)cc2NS(=O)(=O)c2ccc(C(C)(C)C)cc2)nnc1C1CCCOC1 (centres unmarked) [Compound 63] |
